Laboratory results taken from US4568646A, “Preparation of antibiotic LL-D05139β from cultures of Glycomyces harbinensis, gen. nov., sp. nov” (American Cyanamid Company, priority 1985, dated 1986).

Columns and labels:
[1] = test system: human lung carcinoma (LX-1); test: Human tumor clonogenic (stem cell) assay, lung carcinoma; format: cell-based; settings: for T/C (treated/control colonies): Lung Carcinoma
Description: (§1) This test was performed essentially by the method of A. Hamburger and S. Salmon, Primary bioassay of human tumor stem cells., Science, 197: 461-463 (1977). Human colon carcinoma (CX-1) and human lung carcinoma (LX-1) tumors were obtained from the National Cancer Institute and propagated in athymic Balb/c mice. Freshly removed tumors were dispersed with trypsin 0.25% and 5×10^4 lung carcinoma cells or 1×10^5 colon carcinoma cells in soft (0.3%) agarose medium containing 0.1 ml of test drug were plated onto a solidified (0.5%) agarose base medium in 35 mm grided dishes. Cultures were incubated at 37° C. in a humidified 5% carbon dioxide in air atmosphere. Colonies were counted after 10-11 days. A compound is considered active if the treated/control (T/C) value is ≤30%, representing a 70% cell kill.

[2] = test system: human colon carcinoma (CX-1); test: Human tumor clonogenic (stem cell) assay, colon carcinoma; format: cell-based
Description: as §1

[3] = Stability in solution as a function of pH; format: physicochemical

Stability in solution ([3]; below pH 5.0): Decomposes rapidly
Stability in solution ([3]; weakly basic solutions): stable
SMILES: C[C@H](N)C(=O)N[C@@H](COC(=O)C=[N+]=[N-])C(=O)O [LL-D05139β, N-L-alanyl-L-serine diazoacetate]
T/C (treated/control colonies) ([1]; concentration 2 mgc/ml): 23.2%
T/C (treated/control colonies) ([1]; concentration 20 mgc/ml): 17.8%
T/C (treated/control colonies) ([1]; concentration 200 mgc/ml): 13.0%
Activity in human tumor clonogenic assay (active if T/C ≤30%) ([1]; human lung (LX-1) carcinoma, at 2.0 mcg/ml and higher doses): active
T/C (treated/control colonies) ([2]; Colon Carcinoma, concentration 2 mgc/ml): 16.0%
Activity in human tumor clonogenic assay (active if T/C ≤30%) ([2]; colon (CX-1) carcinoma, at 2.0 mcg/ml and higher doses): active
